pIC50: −log10 of the molar value.
Legend:
[1] = Lipophilicity; assay type: physicochemical
[2] = test system: HCT-116 tumors; assay: PET imaging of HCT-116 tumor-bearing mice; assay type: in vivo, NIH-III nude mice; settings: 2 h p.i., n = 3
Protocol: Positron emission tomography (PET) and biodistribution experiments were carried out in HCA-7 and HCT-116 tumor-bearing NIH-III nude mice (Charles River Laboratories, Quebec, Canada). Female NIH-III nude mice were housed under standard conditions with free access to standard food and tap water. HCA-7 and HCT-116 cells (5 × 10^6 cells in 100 μL of PBS) were injected into the upper left flank of female NIH-III nude mice (20–24 g). After 14 to 21 days post-inoculation, HCA-7 and HCT-116 tumors reached sizes of approximately 0.6–0.9 cm^3 (0.78 ± 0.15 g, as determined during biodistribution experiments) which were suitable for all in vivo experiments.
General anesthesia of HCA-7 tumor-bearing mice was induced with inhalation of isoflurane in 40 % oxygen/60 % nitrogen (gas flow = 1 mL/min), and mice were subsequently fixed in prone position. The body temperature was kept constant at 37 °C for the entire experiment. […] PET data was collected dynamically over 60 min for up to 4 h using an Inveon® PET/CT scanner (Siemens Preclinical Solutions, Knoxville, TN, USA). […] Mean standardized uptake values [SUVmean = (activity/mL tissue)/(injected activity/body weight), mL/g] were calculated for each region of interest (ROI) with a threshold defined at 50 % of radioactivity uptake. […] All semi-quantified PET data are presented as means ± SEM.

[3] = Radiometabolite analysis and blood compartment distribution; assay type: in vivo, NIH-III nude mice
Protocol: Blood samples from the tail vein (20–40 μL) were collected at 5, 30, 60, and 120 min p.i. Plasma was separated by centrifugation (5 min, 13,000×g) followed by plasma protein precipitation using ice-cold methanol (two parts per one part plasma) and centrifugation (5 min, 13,000×g). Supernatants were analyzed by radio thin-layer chromatography (radio-TLC). TLCs were developed in 1 % MeOH/CH2Cl2 and analyzed using a BAS-5000 reader.

[4] = test system: HCA-7 tumors; assay: Biodistribution in HCA-7 tumor-bearing mice; settings: 60 min p.i.; for Biodistribution: Tumor/blood / Biodistribution: Tumor/muscle: ratio, n = 4; for Blocking of [^18F]Pyricoxib tumor uptake (biodistribution studies): celecoxib 100 mg/kg (2 mg per mouse) i.p., HCA-7 tumor
Protocol: Animals were sacrificed at 60 min p.i. The organs and tissues of interest were rapidly excised, weighed, and the radioactivity was determined using the automatic gamma counter (see above). Radioactivity in the selected tissues and organs was calculated as percent injected dose per gram tissue (%ID/g). Data were analyzed as means ± standard deviation (mean ± SD) for n = 4 animals.

[5] = test system: HCA-7 tumors; assay: Dynamic PET imaging of HCA-7 tumor-bearing mice
Protocol: Female NIH-III nude mice were housed under standard conditions with free access to standard food and tap water. HCA-7 and HCT-116 cells (5 × 10^6 cells in 100 μL of PBS) were injected into the upper left flank of female NIH-III nude mice (20–24 g). After 14 to 21 days post-inoculation, HCA-7 and HCT-116 tumors reached sizes of approximately 0.6–0.9 cm^3 (0.78 ± 0.15 g, as determined during biodistribution experiments) which were suitable for all in vivo experiments.
General anesthesia of HCA-7 tumor-bearing mice was induced with inhalation of isoflurane in 40 % oxygen/60 % nitrogen (gas flow = 1 mL/min), and mice were subsequently fixed in prone position. The body temperature was kept constant at 37 °C for the entire experiment. […] PET data was collected dynamically over 60 min for up to 4 h using an Inveon® PET/CT scanner (Siemens Preclinical Solutions, Knoxville, TN, USA). For the initial 4-h dynamic PET experiments, 3.5 % HSA was added to the final injection solution, while all other experiments were done without addition of carrier protein HSA. Mean standardized uptake values [SUVmean = (activity/mL tissue)/(injected activity/body weight), mL/g] were calculated for each region of interest (ROI) with a threshold defined at 50 % of radioactivity uptake. The time-activity curves (TACs) were generated from dynamic PET scans. All semi-quantified PET data are presented as means ± SEM.
A transmission scan for attenuation correction was not acquired. The radioactivity of the injection solution in a 0.5 mL syringe was determined with a dose calibrator (Atomlab^TM 300, Biodex Medical Systems, New York, U.S.A.). After the PET emission scan was started the radioactivity was injected with a delay of approximately 15 s. Data acquisition continued for 60 min in 3D list mode. The dynamic list mode data were sorted into sinograms with up to 54 time frames (10x2, 8x5, 6x10, 6x20, 8x60, 10x120, 6x300 s). The frames were reconstructed using maximum a posteriori (MAP) reconstruction modes. The pixel size was 0.085x0.085x0.12 cm, and the resolution in the center field of view was 1.8 mm. Correction for partial volume effects was not performed. The image files were further processed using the ROVER v2.0.51 software (ABX GmbH, Radeberg, Germany). Masks defining 3D regions of interest (ROI) were set and the ROIs were defined by thresholding.
ROIs covered all visible tumor mass of the subcutaneous tumors, and the thresholds were defined by 50% of the maximum radioactivity uptake level for HCA-7 tumor in each animal.

[6] = test system: carbonic anhydrase (CA) enzyme family; settings: cited from earlier work
[7] = test system: HCA-7 cells
Protocol: Blocking experiments were performed at 60 min. Radiotracer uptake was stopped by the addition of 1 mL of ice-cold PBS. Then, cells were washed two times with PBS and lysed in 0.4 mL of radioimmunoprecipitation assay buffer (RIPA buffer). Radioactivity of cell lysates was determined with a WIZARD2 Automatic gamma counter (Perkin Elmer; Waltham, MA, USA). Total protein concentration in the samples was determined by the bicinchoninic acid method (BCA; Pierce, Thermo Scientific 23227) using bovine serum albumin (800, 600, 400, 300, 200, 100, 50 μg/mL, blank) as protein standard. Cell uptake data are expressed as percent of measured radioactivity per 1 mg protein (%radioactivity/mg protein).

[8] = test system: COX-2; settings: read-out: COX-2 inhibition IC50; cited from earlier work
[9] = + 2 mg celecoxib i.p. 60 min prior

With CS(=O)(=O)c1ccc(-c2cc(C(F)(F)F)nc(NCc3ccc([18F])cc3)n2)cc1 [[^18F]Pyricoxib, N-(4-[^18F]fluorobenzyl)-4-[4-(methylsulfonyl)phenyl]-6-(trifluoro-methyl)pyrimidin-2-amine] the logP [1] was 3.37, the SUV2h tumor [2] was 0.93 ± 0.06 and the “Blood compartment distribution: blood cells” value ([3]; 5 min) was 68%. The “Blood compartment distribution: plasma proteins” value ([3]; 5 min) was 2%, the “Blood compartment distribution: plasma supernatant” value ([3]; 5 min) was 30% and the “Detectable radioactivity in plasma fraction” value ([3]; 5 min p.i.) was 30%. The “Blood compartment distribution: blood cells” value ([3]; 30 min) was 54%, the “Blood compartment distribution: plasma proteins” value ([3]; 30 min) was 4% and the “Blood compartment distribution: plasma supernatant” value ([3]; 30 min) was 42%. The “Blood compartment distribution: blood cells” value ([3]; 60 min) was 43%, the “Blood compartment distribution: plasma proteins” value ([3]; 60 min) was 7% and the “Blood compartment distribution: plasma supernatant” value ([3]; 60 min) was 50%. For the same compound, the “Detectable radioactivity in plasma fraction” value ([3]; 2 h p.i.) was 50%, the “Percentage of intact [^18F]Pyricoxib” value ([3]; blood, 5 min p.i., mice) was 98% and the “Biodistribution: Blood” value ([4]; control, n = 4, mean ± SD) was 0.65 ± 0.12 %ID/g. The “Biodistribution: Bone” value ([4]; control, n = 4, mean ± SD) was 0.67 ± 0.19 %ID/g, the “Biodistribution: Brain” value ([4]; control, n = 4, mean ± SD) was 1.74 ± 0.51 %ID/g and the “Biodistribution: Duodenum” value ([4]; control, n = 4, mean ± SD) was 4.59 ± 0.73 %ID/g. The “Biodistribution: Fat” value ([4]; control, n = 4, mean ± SD) was 12.67 ± 5.45 %ID/g, the “Biodistribution: HCA-7 tumor” value ([4]; control, n = 4, mean ± SD) was 2.12 ± 0.53 %ID/g and the “Biodistribution: Heart” value ([4]; control, n = 4, mean ± SD) was 2.52 ± 0.54 %ID/g. For the same compound, the “Biodistribution: Intestine (large)” value ([4]; control, n = 4, mean ± SD) was 4.21 ± 1.74 %ID/g, the “Biodistribution: Intestine (small)” value ([4]; control, n = 4, mean ± SD) was 8.08 ± 2.33 %ID/g and the “Biodistribution: Kidneys” value ([4]; control, n = 4, mean ± SD) was 4.38 ± 1.01 %ID/g. The “Biodistribution: Liver” value ([4]; control, n = 4, mean ± SD) was 17.13 ± 1.22 %ID/g, the “Biodistribution: Lung” value ([4]; control, n = 4, mean ± SD) was 3.75 ± 0.66 %ID/g and the “Biodistribution: Muscle” value ([4]; control, n = 4, mean ± SD) was 1.42 ± 0.54 %ID/g. The “Biodistribution: Ovaries” value ([4]; control, n = 4, mean ± SD) was 8.22 ± 1.27 %ID/g, the “Biodistribution: Pancreas” value ([4]; control, n = 4, mean ± SD) was 3.92 ± 1.39 %ID/g and the “Biodistribution: Spleen” value ([4]; control, n = 4, mean ± SD) was 1.24 ± 0.33 %ID/g. For the same compound, the “Biodistribution: Stomach” value ([4]; control, n = 4, mean ± SD) was 1.08 ± 0.29 %ID/g, the “Biodistribution: Tumor/blood” value [4, 9] was 1.09 ± 0.41 and the “Biodistribution: Tumor/muscle” value [4, 9] was 0.70 ± 0.19. For the same compound, the “Biodistribution: Tumor/blood” value ([4]; control) was 3.39 ± 0.55, the “Biodistribution: Tumor/muscle” value ([4]; control) was 1.81 ± 1.04 and the “Mean SUV HCA-7 tumor” value ([5]; 60 min p.i., control animals, no HSA, n = 6) was 0.75 ± 0.12. For the same compound, the “SUV HCA-7 tumor” value ([5]; 60 min p.i., pre-treated with celecoxib 2 mg i.p. 60 min prior, n = 6) was 0.57 ± 0.20, the SUV2h tumor ([5]; HCA-7 tumor, 2 h p.i., n = 3) was 1.09 ± 0.13 and the SUV4h tumor ([5]; HCA-7 tumor, 4 h p.i., […] HSA added, n = 7) was 1.19 ± 0.13. For the same compound, the SUV muscle ([5]; muscle as reference tissue, 60 min p.i., no HSA, n = 6) was 0.50 ± 0.11, the SUV60min muscle ([5]; muscle, 60 min p.i., […] HSA added) was 0.61 ± 0.14 and the SUV4h muscle ([5]; muscle, 4 h p.i., […] HSA added, n = 7) was 0.53 ± 0.11.

In the case of Cc1ccc(-c2cc(C(F)(F)F)nn2-c2ccc(S(N)(=O)=O)cc2)cc1 [celecoxib, reference compound], the “Affinity for carbonic anhydrase” value [6] is listed as “low nanomolar affinity”, the “Blocking of [^18F]Pyricoxib tumor uptake (biodistribution studies)” value [4] is listed as 50% and the “Blocking of [^18F]Pyricoxib tumor uptake (biodistribution studies)” value ([4]; listed as Celecoxib) is listed as 51%.

For CS(=O)(=O)c1ccc(C2=C(c3ccccc3)C(=O)OC2)cc1 [rofecoxib, 4-(4′-methylsulfonylphenyl)-3-phenyl-2-(5H)-furanone], the “Blocking of [^18F]Pyricoxib uptake” value [7] is listed as “blocked uptake of [^18F]Pyricoxib in HCA-7 cells in a concentration-dependent manner” and the pIC50 [8] is listed as 7.59 to 7.74.

Reference: paper PMC4844587, “PET imaging of cyclooxygenase-2 (COX-2) in a pre-clinical colorectal cancer model” (EJNMMI Research, 2016)
